The results in this text go back to patent US20250304939A1, “TAILORED ANTI-FUNGAL DRUGS AND TOOLS TO DIAGNOSE INVASIVE FUNGAL INFECTIONS” (priority 2022, published 2025).

The subject of one assay is A. niger. Description: Biotin-tagged peptide binding to heat-inactivated conidia, flow cytometry. More on the design: species or system Aspergillus niger. The note with it: 5 μg/ml. On the procedure:
(§1) A 30 amino acid peptide comprising the KLMAR sequence was generated with an N-terminal biotin-tag. […] 5 μg/ml of the N-term biotin-tagged peptides were incubated with 1×10^7 heat-inactivated conidia/ml from different Aspergillus species and from fungi belonging to the Mucorales order. The peptide binding was subsequently detected with a FITC-coupled streptavidin using flow cytometry (Beckman Coulter, Gallios).
On the technique in general: Flow cytometry measures light scatter and fluorescence of single cells or particles in a stream.

Another assay has as its system Rhizopus arrhizus. The assay is described as above. As to conditions: 5 μg/ml. On the procedure: as §1
A further assay has as its system Mucor circinelloides. The description is as above. As to conditions: 5 μg/ml. On the procedure: as §1
A further assay has as its system Lichtemia corymbifera. The assay is described as above. As to conditions: 5 μg/ml. On the procedure:
as §1

The subject of the next assay is THP-1 cells. Description: Peptide binding to human cells, flow cytometry. As to conditions: 5 μg/ml; 1×10^7 cells/ml. On the procedure: (§2) 5 μg/ml of the N-term biotin-tagged MASP-1 peptide was incubated with THP-1 and HMEC-1 cells (1×10^7 cells/ml). The peptide binding was subsequently detected with a FITC-coupled streptavidin using flow cytometry (Beckman Coulter, Gallios).

Another assay relates to HMEC-1 cells. Description: Peptide binding to human cells, flow cytometry. As to conditions: 5 μg/ml; 1×10^7 cells/ml. The protocol:
as §2

Assay [1] has as its system A. fumigatus conidia. Description: Biotin-tagged 30 amino acid peptide binding to heat-inactivated conidia, FITC-streptavidin flow cytometry. Also on record: species or system Aspergillus fumigatus. The note with it: for peptide binding to A. fumigatus conidia: 5 μg/ml N-term biotin-tagged peptide, 1×10^7 heat-inactivated conidia/ml. The protocol: as §1
Three 30 amino acid peptides from the CCP2 domain of MASP-1 were generated with an N-terminal biotin-tag. CCP2 Ctrl.Pep1: […], CCP2 Ctrl.Pep2: […], CCP2 Ctrl.Pep3: […]. 5 and 10 μg/ml of the N-term biotin-tagged peptides were incubated with 1×10^7 heat-inactivated A. fumigatus conidia/ml and the peptide binding was detected with a FITC-coupled streptavidin using flow cytometry (BD, Celesta).
5 μg/ml of the N-term biotin-tagged peptides with C→S mutations at position 7 (C7S), position 11 (C11S) and both positions (C7S+C11S) were incubated with 1×10^7 heat-inactivated A. fumigatus conidia/ml. The peptide binding was subsequently detected with a FITC-coupled streptavidin using flow cytometry (BD, Celesta).
5 μg/ml of the N-term biotin-tagged MASP-1 peptide were incubated with 1×10^7 heat-inactivated A. fumigatus conidia/ml in barbital buffer (containing Ca2+) with or without 20 mM EDTA that chelates the calcium. The peptide binding was subsequently detected with a FITC-coupled streptavidin using flow cytometry (Beckman Coulter, Gallios).
The binding of the MASP-1 peptide was compared to the binding of a MASP-3 peptide covering the same protein region and thus having partly overlapping amino acid sequences. MASP-1 peptide: […] (SEQ ID NO: 1). MASP-3 peptide: […] (SEQ ID NO: 3). 5 μg/ml of the N-term biotin-tagged peptides were incubated with 1×10^7 heat-inactivated A. fumigatus conidia/ml. The peptide binding was subsequently detected with a FITC-coupled streptavidin using flow cytometry (Beckman Coulter, Gallios).

The next assay relates to A. terreus. Description: Biotin-tagged peptide binding to heat-inactivated conidia, flow cytometry. More on the design: species or system Aspergillus terreus. As to conditions: 5 μg/ml. On the procedure: as §1
The test system of another assay is A. flavus. Described as above. As to conditions: 5 μg/ml. Also on record: species or system Aspergillus flavus. On the procedure:
as §1

The next assay has as its system Aspergillus fumigatus. Description: Recombinant MASP-1 binding to A. fumigatus growth stages, fluorescence microscopy. The note with it: 5 μg/ml, resting conidia, swollen conidia, germ tubes and hyphae. On the procedure:
MASP-1 binding was tested on the different growth stages of A. fumigatus. First, the A. fumigatus conidia were incubated on microscopy glass slides for 0, 4, 8 and 16 hours to obtain resting conidia, swollen conidia, germ tubes and hyphae. Recombinant MASP-1 was then added in a concentration of 5 μg/ml and binding was detected with a pan anti-MASP-1/-3/MAP-1 monoclonal antibody 8B3 and Alexa fluor 488-coupled goat anti-mouse antibody. […] This is very surprising since until now, MASP-1 is known only to interact with endogenous pattern recognition molecules (PRMs) and not so-called pathogen-associated molecular patterns (PAMPs).
MASP-1, a serine protease from the complement system, binds directly to various pathogenic fungi, for example, Aspergillus fumigatus and this knowledge can be utilized to design a targeted antifungal compound. MASP-1 binding was tested on the different growth stages of A. fumigatus. First, the A. fumigatus conidia were incubated on microscopy glass slides for 0, 4, 8 and 16 hours to obtain resting conidia, swollen conidia, germ tubes and hyphae. Recombinant MASP-1 was then added in a concentration of 5 μg/ml and binding was detected with a pan anti-MASP-1/-3/MAP-1 monoclonal antibody 8B3 and Alexa fluor 488-coupled goat anti-mouse antibody.

The subject of assay [2] is A. fumigatus conidia. Description: rMASP-1 (wild-type/mutated) binding to heat-inactivated conidia, flow cytometry. More on the design: species or system Aspergillus fumigatus. The note with it: 5 μg/ml, 1×10^7 heat-inactivated conidia/ml. The protocol: A. fumigatus conidia were heat-inactivated (15 min 121° C.) to eliminate contamination in the laboratory. 1×10^7 conidia/ml were incubated with 5 μg/ml recombinant wild-type MASP-1 (^444KLMAR^448) or mutated rMASP-1 (^444DDDDK^448). The binding of MASP-1 was detected using 10 μg/ml of a pan anti-MASP-1/-3/MAP-1 monoclonal antibody 8B3 followed by a FITC-conjugated goat anti-mouse polyclonal antibody. Binding was measured as the mean fluorescence intensity using flow cytometry (Beckman Coulter, Gallios).
The experiment in this example 2A was performed using the method as described in example 2.

On to “MASP-1 peptide: 30 amino acid MASP-1 peptide GRSLPTCLPVCGLPKFSRKLMARIFNGRPA (SEQ ID NO: 1)”, for which the “peptide binding to A. niger conidia” value with A. niger was “successfully bound”. The “peptide binding to Rhizopus arrhizus conidia” value with Rhizopus arrhizus is recorded as “successfully bound”. Besides, in the assay on Mucor circinelloides, the “peptide binding to Mucor circinelloides conidia” value is recorded as “successfully bound”. In addition, the “peptide binding to Lichtemia corymbifera conidia” value in the assay on Lichtemia corymbifera was “successfully bound”. Besides, the “peptide binding to THP-1 monocytic cell line” value with THP-1 cells is “did not show any binding”. The “peptide binding to HMEC-1 endothelial cell line” value with HMEC-1 cells was “did not show any binding”. Also, the “peptide binding to A. fumigatus conidia” value in the assay with A. fumigatus conidia [1] is “successfully bound”. Moreover, in the assay on A. fumigatus conidia [1] (5 μg/ml, barbital buffer (containing Ca2+) without EDTA), the “peptide binding to A. fumigatus conidia with calcium” value was “bound equally well”. In addition, the “peptide binding to A. fumigatus conidia without calcium” value in the assay on A. fumigatus conidia [1] (5 μg/ml, barbital buffer with 20 mM EDTA) was “bound equally well”. For the same molecule, the “peptide binding to A. fumigatus conidia (median fluorescence intensity), CCP2 domain comparison” value in the assay on A. fumigatus conidia [1] (5 and 10 μg/ml, heat-inactivated conidia, BD Celesta) is “bound”. Besides, the “peptide binding to A. terreus conidia” value in the assay on A. terreus is reported as “successfully bound”. In the assay with A. flavus, the “peptide binding to A. flavus conidia” value is “successfully bound”.

In the case of “MASP-3 peptide: 30 aa MASP-3 peptide covering the same protein region, GRSLPTCLPECGQPSRSLPSLVKRIIGGRN (SEQ ID NO: 3) (listed as Homo sapiens) [reference compound]”, the “peptide binding to THP-1 monocytic cell line” value with THP-1 cells is listed as “Neither of the 30 aa MASP peptides bind”. The “peptide binding to HMEC-1 endothelial cell line” value in the assay with HMEC-1 cells is recorded as “Neither of the 30 aa MASP peptides bind”. Besides, the “peptide binding to A. fumigatus conidia” value in the assay on A. fumigatus conidia [1] is “did not bind”.

B1: wild-type rMASP-1 (^444KLMAR^448): recombinant wild-type MASP-1, a serine protease from the complement system, containing 444KLMAR448 (protein, UniProt P48740 20-699, looked up)
Mannan-binding lectin serine …: HTVELNNMFGQIQSPGYPDSYPSDSEVTWNITVPDGFRIKLYFMHFNLESSYLCEYDYVKVETEDQVLATFCGRETTDTEQTPGQEVVLSPGSFMSITFRSDFSNEERFTGFDAHYMAVDVDECKEREDEELSCDHYCHNYIGGYYCSCRFGYILHTDNRTCRVECSDNLFTQRTGVITSPDFPNPYPKSSECLYTIELEEGFMVNLQFEDIFDIEDHPEVPCPYDYIKIKVGPKVLGPFCGEKAPEPISTQSHSVLILFHSDNSGENRGWRLSYRAAGNECPELQPPVHGKIEPSQAKYFFKDQVLVSCDTGYKVLKDNVEMDTFQIECLKDGTWSNKIPTCKIVDCRAPGELEHGLITFSTRNNLTTYKSEIKYSCQEPYYKMLNNNTGIYTCSAQGVWMNKVLGRSLPTCLPVCGLPKFSRKLMARIFNGRPAQKGTTPWIAMLSHLNGQPFCGGSLLGSSWIVTAAHCLHQSLDPEDPTLRDSDLLSPSDFKIILGKHWRLRSDENEQHLGVKHTTLHPQYDPNTFENDVALVELLESPVLNAFVMPICLPEGPQQEGAMVIVSGWGKQFLQRFPETLMEIEIPIVDHSTCQKAYAPLKKKVTRDMICAGEKEGGKDACAGDSGGPMVTLNRERGQWYLVGTVSWGDDCGKKDRYGVYSYIHHNKDWIQRVTGVRN
On to B1, for which, in the assay with Aspergillus fumigatus, the “recombinant MASP-1 binding to A. fumigatus growth stages” value is “binding was detected for all growth stages”. The “binding of rMASP-1 to A. fumigatus conidia (mean fluorescence intensity)” value (“binding … (mean fluorescence intensity)” below) with A. fumigatus conidia [2] is listed as “binds”.

B2: mutated rMASP-1 (^444DDDDK^448): recombinant MASP-1 in which 444KLMAR448 was substituted by DDDDK (SEQ ID NO: 4), activated version (protein, UniProt P48740 20-699, looked up, variant K444D L445D M446D A447D R448K)
Mannan-binding lectin serine …: HTVELNNMFGQIQSPGYPDSYPSDSEVTWNITVPDGFRIKLYFMHFNLESSYLCEYDYVKVETEDQVLATFCGRETTDTEQTPGQEVVLSPGSFMSITFRSDFSNEERFTGFDAHYMAVDVDECKEREDEELSCDHYCHNYIGGYYCSCRFGYILHTDNRTCRVECSDNLFTQRTGVITSPDFPNPYPKSSECLYTIELEEGFMVNLQFEDIFDIEDHPEVPCPYDYIKIKVGPKVLGPFCGEKAPEPISTQSHSVLILFHSDNSGENRGWRLSYRAAGNECPELQPPVHGKIEPSQAKYFFKDQVLVSCDTGYKVLKDNVEMDTFQIECLKDGTWSNKIPTCKIVDCRAPGELEHGLITFSTRNNLTTYKSEIKYSCQEPYYKMLNNNTGIYTCSAQGVWMNKVLGRSLPTCLPVCGLPKFSRDDDDKIFNGRPAQKGTTPWIAMLSHLNGQPFCGGSLLGSSWIVTAAHCLHQSLDPEDPTLRDSDLLSPSDFKIILGKHWRLRSDENEQHLGVKHTTLHPQYDPNTFENDVALVELLESPVLNAFVMPICLPEGPQQEGAMVIVSGWGKQFLQRFPETLMEIEIPIVDHSTCQKAYAPLKKKVTRDMICAGEKEGGKDACAGDSGGPMVTLNRERGQWYLVGTVSWGDDCGKKDRYGVYSYIHHNKDWIQRVTGVRN
modifications: activated
With B2, the entries for the “binding … (mean fluorescence intensity)” value in the assay on A. fumigatus conidia [2] and with A. fumigatus conidia [2] (listed as active mutated rMASP-1) were “did not bind” and “Neither the active nor zymogen mutated rMASP-1 (44^4DDDDK^448) bound”, respectively.

B3: zymogen mutated rMASP-1: zymogen version of the mutated rMASP-1 (444DDDDK448) (protein, UniProt P48740 20-699, looked up, variant K444D L445D M446D A447D R448K)
pro-form: HTVELNNMFGQIQSPGYPDSYPSDSEVTWNITVPDGFRIKLYFMHFNLESSYLCEYDYVKVETEDQVLATFCGRETTDTEQTPGQEVVLSPGSFMSITFRSDFSNEERFTGFDAHYMAVDVDECKEREDEELSCDHYCHNYIGGYYCSCRFGYILHTDNRTCRVECSDNLFTQRTGVITSPDFPNPYPKSSECLYTIELEEGFMVNLQFEDIFDIEDHPEVPCPYDYIKIKVGPKVLGPFCGEKAPEPISTQSHSVLILFHSDNSGENRGWRLSYRAAGNECPELQPPVHGKIEPSQAKYFFKDQVLVSCDTGYKVLKDNVEMDTFQIECLKDGTWSNKIPTCKIVDCRAPGELEHGLITFSTRNNLTTYKSEIKYSCQEPYYKMLNNNTGIYTCSAQGVWMNKVLGRSLPTCLPVCGLPKFSRDDDDKIFNGRPAQKGTTPWIAMLSHLNGQPFCGGSLLGSSWIVTAAHCLHQSLDPEDPTLRDSDLLSPSDFKIILGKHWRLRSDENEQHLGVKHTTLHPQYDPNTFENDVALVELLESPVLNAFVMPICLPEGPQQEGAMVIVSGWGKQFLQRFPETLMEIEIPIVDHSTCQKAYAPLKKKVTRDMICAGEKEGGKDACAGDSGGPMVTLNRERGQWYLVGTVSWGDDCGKKDRYGVYSYIHHNKDWIQRVTGVRN
modifications: pro-form zymogen, enterokinase site
With B3, the “binding … (mean fluorescence intensity)” value in the assay with A. fumigatus conidia [2] is given as “Neither the active nor zymogen mutated rMASP-1 (44^4DDDDK^448) bound”.
